These are literature values, as cited in patent US20100331927A1, “FEEDBACK-CONTROLLED METHOD FOR DELIVERING PHOTODYNAMIC THERAPY AND RELATED INSTRUMENTATION” (priority 2007, published 2010).

This series relates to rat bladder tumor model. The note with it: 60s/60s light interval/dark interval.

With `C=Cc1c(C)c2cc3nc(cc4[nH]c(cc5nc(cc1[nH]2)C(C)=C5CCC(=O)O)c(CCC(=O)OC)c4C)C1(C)C3=CC=C(C(=O)OC)C1C(=O)OC` (stereo not shown) [BPD-MA], the “improvement of phototoxicity by light fractionation” value is listed as 1000 fold.
